According to patent US20230404887A1, “COMPOSITIONS TO LIMIT OR ELIMINATE THE PERCEPTION OF SWEAT MALODOR” (Firmenich SA, priority 2020, published 2023):

Experiments:
[1] = Expert perfumer evaluation of malodor reduction, dynamic olfactometer, against 3M2HA; set-up: species or system human; settings: for EFFECTIVE CONCENTRATION: MO 3M2HA held fixed at mid-intensity (0.5), headspace concentration providing an effective level; for EXPERT RATING: MO 3M2HA held fixed at mid-intensity (0.5 on scale 0-1), rating of degree of malodor reduction at the effective concentration
Method: (§1) The effectiveness of perfuming materials in compositions to reduce the perception of, for example, axillary sweat malodors, was evaluated by an expert perfumer by 1) selecting target axillary malodor components, 2) delivering target malodor components and candidate malodor reducing materials to the nose of an expert perfumer at carefully controlled concentrations, 3) having the expert perfumer identify the concentration at which malodor reduction was obtained, and 4) rating the degree of reduction achieved at the concentration identified in step 3.
(§2) In this method, a dynamic multi-channel olfactometer was used to precisely deliver known gas phase concentrations of the test materials, using forced evaporation, into a stream of air emanating from a smelling port. The appropriate concentration of the malodor component was established prior to its being mixed with the candidate malodor reducing substance. The concentration was set at a concentration sufficient to produce an intensity of 0.5 (mid-intensity) on a scale of 0-1. The expert perfumer then dynamically adjusted the concentration of the candidate malodor reducing substance to determine the effective concentration, while maintaining a fixed concentration of the malodor component. Once the appropriate concentration had been determined, the expert perfumer evaluated the perception of the mixtures repeatedly over a period of several minutes, taking breaks in between sniffs to avoid adaptation to the components being tested, before providing a rating.
(§3) Tests were performed in a forced-evaporation, dynamic olfactometer, with malodor component concentrations held fixed at a mid-intensity. Ratings of effectiveness were based in the following scale: −2 (significant increase in malodor), −1 (slight increase in malodor), 0 (no effect), 1 (slight malodor reduction), 2 (good malodor reduction), 3 (complete malodor reduction). The malodor (MO) component abbreviations are 3H3MHA (3-methyl-3-hydroxyhexanoic acid), 3M2HA (3-methyl-2-hexenoic acid), 3M3SH (3-methyl-3-sulphanylhexanol).

[2] = Expert perfumer evaluation of malodor reduction, dynamic olfactometer, against 3M3SH; set-up: species or system human; settings: for EFFECTIVE CONCENTRATION: MO 3M3SH held fixed at mid-intensity (0.5), headspace concentration providing an effective level; for EXPERT RATING: MO 3M3SH held fixed at mid-intensity (0.5 on scale 0-1), rating of degree of malodor reduction at the effective concentration
Method: as §1, §2, §3

Compound | EFFECTIVE CONCENTRATION [1] | EXPERT RATING [1] | EFFECTIVE CONCENTRATION [2] | EXPERT RATING [2]
O=C1CCCCCCC/C=C/CCCCCCO1 [(10E)-OXACYCLOHEPTADEC-10-EN-2-ONE] | 7.17E−02 micrograms/L AIR | 2 | 2.87E−01 micrograms/L AIR | 2
OC/C=C/c1ccccc1 [(2E)-3-PHENYL-2-PROPEN-1-OL] |  |  | 6.50E−02 micrograms/L AIR | 2
COc1ccc2ccccc2c1 [2-METHOXYNAPHTHALENE] | 1.25E−02 micrograms/L AIR | 3 | 5.00E−02 micrograms/L AIR | 3
TRICYCLO[5.2.1.0(2,6)]DEC-3/4-EN-8-YL PROPANOATE | 7.08E−02 micrograms/L AIR | 3 | 1.42E−01 micrograms/L AIR | 2
O=c1ccc2ccccc2o1 [2-CHROMENONE] | 9.83E−03 micrograms/L AIR | 3 | 7.87E−02 micrograms/L AIR | 3
C=CC(C)(CC/C=C(\C)CC)OC(C)=O (racemic) [(+−)-(6E)-3,7-dimethyl-1,6-nonadien-3-yl acetate] |  |  | 6.67E+00 micrograms/L AIR | 2
CCCCCCCCCC(C)C=O (racemic) [(+−)-2-METHYLUNDECANAL] | 2.33E−03 micrograms/L AIR | 2 |  | 
CCc1occc(=O)c1O [2-ETHYL-3-HYDROXY-4(4H)-PYRANONE] | 1.83E−02 micrograms/L AIR | 3 | 1.83E−02 micrograms/L AIR | 2
CC(=O)/C=C/C1=C(C)CCCC1(C)C | 5.83E−02 micrograms/L AIR | 3 | 1.17E−01 micrograms/L AIR | 3
CCOC(=O)/C=C/c1ccccc1 [ETHYL (E)-3-PHENYL-2-PROPENOATE] | 7.33E−02 micrograms/L AIR | 2 | 3.67E−02 micrograms/L AIR | 2
C=CCCCCCCCCC=O [10-UNDECENAL] | 9.50E−03 micrograms/L AIR | 3 | 9.50E−02 micrograms/L AIR | 2
C[C@H]1CCO[C@@H](c2ccccc2)C1 (racemic) [(2RS,4SR)-4-METHYL-2-PHENYLTETRAHYDRO-2H-PYRAN] |  |  | 2.67E−01 micrograms/L AIR | 3
COC(=O)c1c(C)cc(O)c(C)c1O [METHYL 2,4-DIHYDROXY-3,6-DIMETHYLBENZOATE] | 3.50E−03 micrograms/L AIR | 3 | 3.50E−03 micrograms/L AIR | 3
C=CCOC(=O)CCCCC [ALLYL HEXANOATE] | 1.06E+00 micrograms/L AIR | 3 | 2.12E+00 micrograms/L AIR | 3
CCCCCC1(C)CCC(C)(C)C1=O (racemic) | 1.22E+00 micrograms/L AIR | 2 |  | 
CCCCCCCCCCC=O [UNDECANAL] | 5.42E−02 micrograms/L AIR | 3 | 2.17E−01 micrograms/L AIR | 3
CCCCCC#CC(=O)OC [METHYL 2-OCTYNOATE] | 4.67E−01 micrograms/L AIR | 3 | 4.67E−01 micrograms/L AIR | 3
CC(C)=C[C@H]1C[C@@H](C)CCO1 (racemic) [(2RS,4SR)-4-METHYL-2-(2-METHYL-1-PROPEN-1-YL)TETRAHYDRO-2H-PYRAN] | 6.83E−01 micrograms/L AIR | 2 | 6.83E−01 micrograms/L AIR | 1
C=CCOC(=O)CCCCCC [ALLYL HEPTANOATE] | 4.13E+00 micrograms/L AIR | 3 |  | 
COC(=O)/C=C/c1ccccc1 [METHYL (E)-3-PHENYL-2-PROPENOATE] | 7.00E−02 micrograms/L AIR | 3 | 9.33E−02 micrograms/L AIR | 2
C=CC(C)CCCC(C)(C)O (racemic) | 4.33E+00 micrograms/L AIR | 2 |  | 

Compound | EFFECTIVE CONCENTRATION [1] | EXPERT RATING [1] | EFFECTIVE CONCENTRATION [2] | EXPERT RATING [2]
CC(=O)CCc1ccc(O)cc1 [4-(4-HYDROXYPHENYL)-2-BUTANONE] | 1.50E−04 micrograms/L AIR | 3 | 6.00E−04 micrograms/L AIR | 1
O=CCCc1ccccc1 [3-PHENYLPROPANAL] | 2.60E+00 micrograms/L AIR | 3 | 2.60E+00 micrograms/L AIR | 3
CCCCCCCCCC=O [DECANAL] | 5.00E−01 micrograms/L AIR | 3 | 2.50E−01 micrograms/L AIR | 2
CCCCCCC/C=C\CCC=O [(4Z)-4-DODECENAL] | 1.03E−04 micrograms/L AIR | 2 | 2.07E−04 micrograms/L AIR | 1
OCCc1ccccc1 [2-PHENYLETHANOL] | 5.42E−01 micrograms/L AIR | 3 | 1.08E+00 micrograms/L AIR | 2
CCC(C)CCCC(C)(C)O (racemic) | 5.40E+00 micrograms/L AIR | 2 | 1.08E+01 micrograms/L AIR | 2
CCOC(=O)CC1(C)OCCO1 [ETHYL 2-METHYL-1,3-DIOXOLANE-2-ACETATE] | 7.07E+00 micrograms/L AIR | 2 |  | 
CCC(C)(O)CCCC(C)C (racemic) | 9.27E+00 micrograms/L AIR | 2 |  | 
CCCCCCCC=O [OCTANAL] | 6.17E−01 micrograms/L AIR | 3 | 3.08E−01 micrograms/L AIR | 2
CC(=O)CCc1ccccc1 [4-PHENYL-2-BUTANONE] | 7.50E−01 micrograms/L AIR | 3 | 3.75E−01 micrograms/L AIR | 2
COc1ccc(COC(C)=O)cc1 [4-METHOXYBENZYL ACETATE] | 1.18E+00 micrograms/L AIR | 3 | 2.37E+00 micrograms/L AIR | 2
COc1ccc(C=O)cc1 [4-METHOXYBENZALDEHYDE] | 6.83E−02 micrograms/L AIR | 2 |  | 
Cc1ccc(C(C)C)c(O)c1 [THYMOL] | 5.17E−02 micrograms/L AIR | 3 | 1.03E−01 micrograms/L AIR | 3
CC1C/C=C/CCCCCCCCCC(=O)C1 (racemic) [(+−)-(5E)-3-METHYL-5-CYCLOPENTADECEN-1-ONE] | 2.33E−01 micrograms/L AIR | 2 | 5.83E−01 micrograms/L AIR | 1
CCCCCOC(=O)c1ccccc1O [PENTYL 2-HYDROXYBENZOATE] |  |  | 5.00E−01 micrograms/L AIR | 3
3-(2/4-ETHYLPHENYL)-2,2-DIMETHYLPROPANAL | 3.67E−01 micrograms/L AIR | 3 | 7.33E−01 micrograms/L AIR | 2
CCC(C)c1ccc2ncccc2c1 (racemic) [(+−)-6-SEC-BUTYLQUINOLINE] |  |  | 1.83E−02 micrograms/L AIR | 3
COC(Cc1ccccc1)OC [(2,2-DIMETHOXYETHYL)BENZENE] | 3.92E+00 micrograms/L AIR | 3 | 3.92E+00 micrograms/L AIR | 2
CC1(C)CCC[C@]2(C)[C@H]3CCO[C@]3(C)CC[C@@H]12 (racemic) [(3aRS,5aSR,9aSR,9bRS)-3a,6,6,9a-TETRAMETHYLDODECAHYDRONAPHTHO[2,1-b]FURAN] | 4.33E−03 micrograms/L AIR | 3 | 2.17E−03 micrograms/L AIR | 3
CC(=O)OC(C)(C)C1CC=C(C)CC1 (racemic) [(+−)-2-(4-METHYL-3-CYCLOHEXEN-1-YL)-2-PROPANYL ACETATE] | 1.08E+00 micrograms/L AIR | 3 | 1.08E+00 micrograms/L AIR | 3
